These results are taken from patent publication US8835484B2, “Naphthocyanines for use as contrast agents” (Alamedics GmbH & Co. KG, priority 2010, dated 2014).

Where a name gives a salt, the structure may show the parent alone.

A short description of series [1]: Solid cyanine dye stability comparison. It is filed as physicochemical. Conditions: storage. The text has this:
Decomposition of the solid dye results in a red coloration of the solid and the solution. Carboxylic acid esters, especially methyl ester, are particularly sensitive in addition to the bromides.

Series [2] in a line: Fluorescence quantum yield. The following applies: CHCl3; Reference: S-13 with Φ=1.00. In kind it is physicochemical. The source says:
IR spectra: Perkin Elmer Spectrum BX II, using a diamond anvil cell; UV/Vis spectra: Varian Cary 5000 and Bruins Omega 20; fluorescence spectra: Varian Eclispe; NMR spectroscopy: Varian Vnmrs 600 (600 MHz, 400 MHz, 200 MHz); mass spectrometry: Thermo Finnigan LQT FT.

The next series deals with lens capsule. Put plainly: Dye tests on porcine eyes (lens capsule staining). On the set-up: key: +++: visually assessed very strong coloration; ++: good coloration; +: satisfactory coloration; −: weak or absent coloration. The following applies: incubated, rinsed after one minute. On the procedure: For the dye test, in each case 5 mg dye was dissolved in 500 μL ethanol and diluted to 2 mL with BSS Plus solution as the stock solution, and then correspondingly further diluted. As an alternative, one can prepare stock solutions of the dye by dissolving, for example, 5 mg dye in 1 mL distilled water, adding 7 mL BSS solution and then combining with 1 mL NaCl solution having an osmolality of 620 (approximately 2%) in order to restore the original osmolality of the BSS solution (308). This stock solution can be correspondingly further diluted with BSS solution as required. Enucleated porcine eyes were used having a post mortem time period of a few hours. To dye the lens capsule, the cornea was first removed. Thereafter, the iris was resected and the capsular support was severed. The lens with intact lens capsule was removed and placed in a bowl filled with BSS. The lenses were thereafter incubated with the dyes according to the invention at various concentrations and then rinsed after one minute. The dye pattern was photographically documented, whereby the coloration was assessed without additional illumination, and fluorescence was assessed with illumination (Xenon lamp, halogen lamp with typical endoillumination source and fiber optics). The lens capsule is a very good model for dyeing due to the fact that it is a basal membrane, as is the ILM of the retina. Both structures are important target structures in eye surgery.

Series [3] can be described thus: Solid cyanine dye stability comparison. It is filed as physicochemical. Conditions: after work-up, forming a yellow color.
The next series deals with retina. The following applies: cited from earlier work.
The subject of series [4] is internal limiting membrane (ILM). The following applies: literature experiments; cited from earlier work.

For the molecule “3,3′-Di-(10-bromodecyl)-1,1,1′,1′-tetramethyl-1H-disulfobenzo[e]indocarbocyanine bromide [Dye 6i]”, the Stability result in series [1] is “Decomposition after 2 days”. This molecule returned a Fluorescence quantum yield in series [2] of 0.13. Besides, the “coloration of lens capsule” value with lens capsule (dye concentration 0.5%) and with lens capsule (dye concentration 1.0) was “decomposed” in each case.

What is called melting point is the temperature of the solid-liquid transition. For the molecule `CC1(C)C(/C=C/C=C2\N(CCCCS(=O)(=O)O)c3ccc4ccccc4c3C2(C)C)=[N+](CCCCS(=O)(=O)[O-])c2ccc3ccccc3c21` (as salt: bromide) [Dye 3t, 3,3′-Di-(4-sulfobutyl)-1,1,1′,1′-tetramethyl-1H-dibenzo[e]indocarbocyanine bromide], the melting point is over 250 °C.

Molecule `CC1(C)C(/C=C/C=C2\N(CCCCS(=O)(=O)[O-])c3ccc4c(S(=O)(=O)O)cccc4c3C2(C)C)=[N+](CCCCS(=O)(=O)O)c2ccc3c(S(=O)(=O)O)cccc3c21` (as salt: bromide) [Dye 6a, 3,3′-Di-(4-sulfobutyl)-1,1,1′,1′-tetramethyl-1H-disulfobenzo[e]indocarbocyanine bromide] displayed a melting point of over 150 °C.

The molecule `CC1(C)C(/C=C/C=C2\N(CCC(=O)O)c3ccc4ccccc4c3C2(C)C)=[N+](CCC(=O)O)c2ccc3ccccc3c21.[Br-]` (hydrate or solvate) [Dye 3a, 3,3′-Di-(2-carboxyethyl)-1,1,1′,1′-tetramethyl-1H-dibenzo[e]indocarbocyanine bromide] came in with a melting point of 199 °C.

Consider `CC1(C)C(/C=C/C=C2\N(CCCCS(=O)(=O)O)c3ccc4ccccc4c3C2(C)C)=[N+](CCCCS(=O)(=O)[O-])c2ccc3ccccc3c21` [Dye 3t, 3,3′-Di-(4-sulfobutyl)-1,1,1′,1′-tetramethyl-1H-dibenzo[e]indocarbocyanine bromide], for which the Stability entry in series [1] is “No decomposition after 3 years”. Further, in series [2], the Fluorescence quantum yield is on record as 0.32. The “coloration of lens capsule” value in the series on lens capsule (dye concentration 0.0025%) is given as “−”; in the series on lens capsule (dye concentration 0.025%) it was “+”; in the series on lens capsule (dye concentration 0.25%) it was “++”; in the series with lens capsule (dye concentration 0.5%) it was “+++”.

Turning to `CC1(C)C(=CC=CC2=[N+](CCCCCS(=O)(=O)O)c3ccc4ccccc4c3C2(C)C)N(CCCCCS(=O)(=O)O)c2ccc3ccccc3c21.[Br-]` [Dye 3u, 3,3′-Di-(5-sulfopentyl)-1,1,1′,1′-tetramethyl-1H-dibenzo[e]indocarbocyanine bromide], the Stability result in series [1] is reported as “No decomposition after 4 months”. The molecule further showed a Fluorescence quantum yield in series [2] of 0.13. Besides, the “coloration of lens capsule” value is reported as “−” in the series on lens capsule (dye concentration 0.5%) and “+” in the series with lens capsule (dye concentration 1.0).

On to `CC1(C)C(=CC=CC2=[N+](CCCCCCCCCCS(=O)(=O)O)c3ccc4ccccc4c3C2(C)C)N(CCCCCCCCCCS(=O)(=O)O)c2ccc3ccccc3c21.[Br-]` [Dye 3v, 3,3′-Di-(10-sulfodecyl)-1,1,1′,1′-tetramethyl-1H-dibenzo[e]indocarbocyanine bromide], for which the Stability result in series [1] was “No decomposition after 4 months”. This molecule gave a Fluorescence quantum yield in series [2] of 0.14. The “coloration of lens capsule” value with lens capsule (dye concentration 0.5%) and with lens capsule (dye concentration 1.0) was “−” in each case.

As to `CC1(C)C(/C=C/C=C2\N(CCCCS(=O)(=O)[O-])c3ccc4c(S(=O)(=O)O)cccc4c3C2(C)C)=[N+](CCCCS(=O)(=O)O)c2ccc3c(S(=O)(=O)O)cccc3c21` [Dye 6a, 3,3′-Di-(4-sulfobutyl)-1,1,1′,1′-tetramethyl-1H-disulfobenzo[e]indocarbocyanine bromide], the Stability entry in series [1] was “No decomposition after 4 months”. This molecule yielded a Fluorescence quantum yield in series [2] of 0.33. Also, the “coloration of lens capsule” value with lens capsule (dye concentration 0.5%) and with lens capsule (dye concentration 1.0) was “+++” in each case.

On to `CC1(C)C(/C=C/C=C2\N(CCC(=O)O)c3ccc4c(S(=O)(=O)O)cccc4c3C2(C)C)=[N+](CCC(=O)O)c2ccc3c(S(=O)(=O)O)cccc3c21.[Br-]` [Dye 6b, 3,3′-Di-(2-carboxyethyl)-1,1,1′,1′-tetramethyl-1H-disulfobenzo[e]indocarbocyanine bromide], for which the melting point is > 180 °C (dec.). Besides, in series [1], the Stability result is on record as “Decomposition after a few days”. For the same molecule, in series [2], the Fluorescence quantum yield was found to be 0.21. Also, the “coloration of lens capsule” value with lens capsule (dye concentration 0.5%) is given as “+++”. In the series on lens capsule (dye concentration 1.0), the “coloration of lens capsule” value was “+++”.

As for `CC1(C)C(/C=C/C=C2\N(CCCCCCCCCCC(=O)O)c3ccc4c(S(=O)(=O)O)cccc4c3C2(C)C)=[N+](CCCCCCCCCCC(=O)O)c2ccc3c(S(=O)(=O)O)cccc3c21.[Br-]` [Dye 6c, 3,3′-Di-(10-carboxydecyl)-1,1,1′,1′-tetramethyl-1H-disulfobenzo[e]indocarbocyanine bromide], the melting point was > 150 °C (dec.). Besides, the Stability entry in series [1] was “No decomposition after 3 months”. Also, in series [2], the Fluorescence quantum yield came to 0.31. For the same molecule, the “coloration of lens capsule” value in the series with lens capsule (dye concentration 0.5%) is “++”. Further, the “coloration of lens capsule” value in the series on lens capsule (dye concentration 1.0) is recorded as “++”.

On to `COC(=O)CCCCCCCCCCN1/C(=C\C=C\C2=[N+](CCCCCCCCCCC(=O)OC)c3ccc4c(S(=O)(=O)O)cccc4c3C2(C)C)C(C)(C)c2c1ccc1c(S(=O)(=O)O)cccc21.[Br-]` [Dye 6d, 3,3′-Di-(10-methoxycarbonyldecyl)-1,1,1′,1′-tetramethyl-1H-disulfobenzo[e]indocarbocyanine bromide], for which the melting point was > 150 °C (dec.). For the same molecule, the Stability result in series [1] is reported as “Decomposition after 1 month”. The same molecule registered a Fluorescence quantum yield in series [2] of 0.25. In addition, the “coloration of lens capsule” value in the series on lens capsule (dye concentration 0.5%) is recorded as “decomposed”. Also, the “coloration of lens capsule” value with lens capsule (dye concentration 1.0) is “decomposed”.

Consider `CCOC(=O)CCN1/C(=C\C=C\C2=[N+](CCC(=O)OCC)c3ccc4c(S(=O)(=O)O)cccc4c3C2(C)C)C(C)(C)c2c1ccc1c(S(=O)(=O)O)cccc21.[Br-]` [Dye 6e, 3,3′-Di-(2-ethoxycarbonylethyl)-1,1,1′,1′-tetramethyl-1H-disulfobenzo[e]indocarbocyanine bromide], for which the melting point is > 150 °C (dec.). In addition, in series [1], the Stability result is listed as “Decomposition after 2 months”. For the same molecule, in series [2], the Fluorescence quantum yield is given as 0.18. Further, the “coloration of lens capsule” value in the series on lens capsule (dye concentration 0.5%) is “decomposed”. Besides, the “coloration of lens capsule” value in the series with lens capsule (dye concentration 1.0) was “decomposed”.

In the case of `CCOC(=O)CCCCN1/C(=C\C=C\C2=[N+](CCCCC(=O)OCC)c3ccc4c(S(=O)(=O)O)cccc4c3C2(C)C)C(C)(C)c2c1ccc1c(S(=O)(=O)O)cccc21.[Br-]` [Dye 6f, 3,3′-Di-(4-ethoxycarbonylbutyl)-1,1,1′,1′-tetramethyl-1H-disulfobenzo[e]indocarbocyanine bromide], the melting point is > 150 °C (dec.). In addition, the Stability entry in series [1] is on record as “Decomposition after 2 months”. For the same molecule, the Fluorescence quantum yield in series [2] was 0.11. For the same molecule, in series [3], the “decomposition of the dye after preparation” value is “decomposes as soon as after one day”. Further, in the series on lens capsule (dye concentration 0.5%), the “coloration of lens capsule” value is on record as “decomposed”. The “coloration of lens capsule” value in the series on lens capsule (dye concentration 1.0) is “decomposed”.

For the molecule `CCOC(=O)CCCCCN1/C(=C\C=C\C2=[N+](CCCCCC(=O)OCC)c3ccc4c(S(=O)(=O)O)cccc4c3C2(C)C)C(C)(C)c2c1ccc1c(S(=O)(=O)O)cccc21.[Br-]` [Dye 6g, 3,3′-Di-(5-ethoxycarbonylpentyl)-1,1,1′,1′-tetramethyl-1H-disulfobenzo[e]indocarbocyanine bromide], the melting point was > 150 °C (dec.). In addition, the Stability result in series [1] is recorded as “No decomposition after 3 months”. Also, the Fluorescence quantum yield in series [2] worked out at 0.22. In addition, in the series with lens capsule (dye concentration 0.5%), the “coloration of lens capsule” value is “++”. Further, the “coloration of lens capsule” value in the series on lens capsule (dye concentration 1.0) is “++”.

As for `CCCCCN1/C(=C\C=C\C2=[N+](CCCCC)c3ccc4ccccc4c3C2(C)C)C(C)(C)c2c1ccc1ccccc21.[Br-]` [Dye 6j, 3,3′-Di-(pentyl)-1,1,1′,1′-tetramethyl-1H-dibenzo[e]indocarbocyanine bromide], the melting point is > 150 °C (dec.). Further, the Fluorescence quantum yield in series [2] worked out at 0.20.

Consider `CC1(C)C(/C=C/C=C/C=C/C=C2\N(CCCCS(=O)(=O)O)c3ccc4ccccc4c3C2(C)C)=[N+](CCCCS(=O)(=O)[O-])c2ccc3ccccc3c21` [ICG, indocyanine green], for which the “toxic effect on the retina” value in the series on retina is reported as “toxic effect on the retina which is difficult to control”. Further, the “staining of the ILM” value in series [4] is reported as “Selective staining”.
